This note sets out measurements from patent US20260070945A1, “MACROCYCLIC IMMUNOMODULATORS” (Bristol-Myers Squibb Company, priority 2022, published 2026).

The term IC50 denotes the concentration needed to halve the response being measured.

Where a SMILES comes first, the peptide text is derived from it. Bridges are numbered along the chain shown (N, C = ends). [ ]: non-standard residue; d: D form. The star is where a group is joined. ξ: configuration not given here. Phe(4-CONH2) = NC(=O)c1ccc(C[C@H](N)C(=O)O)cc1; Phe(4-COOH) = N[C@@H](Cc1ccc(C(=O)O)cc1)C(=O)O; Bip = N[C@@H](Cc1ccc(-c2ccccc2)cc1)C(=O)O; Phe(3-Me) = Cc1cccc(C[C@H](N)C(=O)O)c1; Val(3-OH) = CC(C)(O)[C@H](N)C(=O)O; Cha = N[C@@H](CC1CCCCC1)C(=O)O; Thr(3ξ) = CC(O)[C@H](N)C(=O)O; Carboxymethyl = O=C(O)C*; NMeA = CN[C@@H](C)C(=O)O; Aun = NCCCCCCCCCCC(=O)O; Dab = NCC[C@H](N)C(=O)O; AEEA = NCCOCCOCC(=O)O

The target of this test is T1, PD-1/PD-L1 interaction (PE-labeled human PD-L1-Ig binding to Jurkat cell line over-expressing human PD-1) (Homo sapiens, UniProt Q15116).
T1 construct: expressed in transfected cells; host or cells: Jurkat
T1 sequence (Q15116 25-288): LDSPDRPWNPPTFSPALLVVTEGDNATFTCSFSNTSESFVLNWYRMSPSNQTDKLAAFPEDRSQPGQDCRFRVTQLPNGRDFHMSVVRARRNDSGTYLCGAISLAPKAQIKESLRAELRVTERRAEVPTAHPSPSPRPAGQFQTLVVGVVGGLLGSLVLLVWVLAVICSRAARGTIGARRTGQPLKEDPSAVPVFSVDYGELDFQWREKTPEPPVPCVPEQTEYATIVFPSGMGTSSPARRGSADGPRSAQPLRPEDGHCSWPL
The experiment in a line: Jurkat-PD-1 Cell Binding High-Content Screening Assay (CBA). As to conditions: PE-labeled PD-L1-Ig 20 nM final, Jurkat-hPD-1 cells; read-out: Jurkat HPD1 PDL1 IC50. In a few lines:
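Cells 8×10^3/well, DMEM + 10% FCS; cpd 2 h, 37 °C; PE–PD-L1-Ig 20 nM final, 1 h; PFA fix + Hoechst 33342, 3× dPBS wash; high-content imager.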
For `CC(C)C[C@H]1NC(=O)[C@H](C)N(C)C(=O)[C@H](Cc2ccc(C(N)=O)cc2)NC(=O)[C@H](Cc2ccc(-c3ccccc3)cc2)NC(=O)[C@H](Cc2ccc(C(N)=O)cc2)NC(=O)[C@H](Cc2c[nH]c3ccccc23)NC(=O)[C@H](CC(=O)O)NC(=O)[C@H](Cc2ccc(OCC(=O)O)cc2)NC(=O)[C@H](C(C)O)NC(=O)CSC[C@@H](C(=O)N[C@@H](CCN)C(=O)NCCCCCCCCCCC(=O)O)NC(=O)[C@H](CO)NC(=O)[C@H](Cc2cnc[nH]2)NC(=O)[C@H](CC2CCCCC2)NC(=O)[C@H](CCN)NC1=O` (stereo partly drawn) [Example 2429] ({CH2CO}-[Thr(3ξ)]Y(Carboxymethyl)DW[Phe(4-CONH2)][Bip][Phe(4-CONH2)][NMeA][dL][Dab][Cha]HSC[Dab][Aun]-OH; thioether N-14), the IC50 was 217 nM. As to `Cc1cccc(C[C@@H]2NC(=O)[C@H](CC(=O)O)NC(=O)[C@H](Cc3ccc(OCC(=O)O)cc3)NC(=O)[C@H](C(C)O)NC(=O)CSC[C@@H](C(=O)N[C@@H](CCN)C(=O)NCCCCCCCCCCC(=O)O)NC(=O)[C@H](CO)NC(=O)[C@H](C(C)(C)O)NC(=O)[C@H](CC3CCCCC3)NC(=O)[C@H](CCN)NC(=O)[C@@H](CC(C)C)NC(=O)[C@H](C)N(C)C(=O)[C@H](Cc3ccc(OCC(=O)O)cc3)NC(=O)[C@H](Cc3ccc(-c4ccccc4)cc3)NC(=O)[C@H](Cc3ccc(C(=O)O)cc3)NC2=O)c1` (stereo partly drawn) [Example 2430] ({CH2CO}-[Thr(3ξ)]Y(Carboxymethyl)D[Phe(3-Me)][Phe(4-COOH)][Bip]Y(Carboxymethyl)[NMeA][dL][Dab][Cha][Val(3-OH)]SC[Dab][Aun]-OH; thioether N-14), the concentration for half-maximal inhibition (IC50) is 34.2 nM. `Cc1cccc(C[C@@H]2NC(=O)[C@H](CC(=O)O)NC(=O)[C@H](Cc3ccc(OCC(=O)O)cc3)NC(=O)[C@H](C(C)O)NC(=O)CSC[C@@H](C(=O)NCCOCCOCC(=O)NCCCCCCCCCCC(=O)O)NC(=O)[C@H](Cc3cnc[nH]3)NC(=O)[C@H](C(C)(C)O)NC(=O)[C@H](CC3CCCCC3)NC(=O)[C@H](CCN)NC(=O)[C@@H](CC(C)C)NC(=O)[C@H](C)N(C)C(=O)[C@H](Cc3ccc(OCC(=O)O)cc3)NC(=O)[C@H](Cc3ccc(-c4ccccc4)cc3)NC(=O)[C@H](Cc3ccc(C(=O)O)cc3)NC2=O)c1` (stereo partly drawn) [Example 2431] ({CH2CO}-[Thr(3ξ)]Y(Carboxymethyl)D[Phe(3-Me)][Phe(4-COOH)][Bip]Y(Carboxymethyl)[NMeA][dL][Dab][Cha][Val(3-OH)]HC[AEEA][Aun]-OH; thioether N-14): the IC50 was 140 nM. Regarding `CC(C)C[C@@H]1NC(=O)[C@H](Cc2c[nH]c3ccccc23)NC(=O)[C@H](CC(=O)O)NC(=O)[C@H](Cc2ccc(C(=O)O)cc2)NC(=O)[C@H](Cc2ccc(OCC(=O)O)cc2)NC(=O)CSC[C@@H](C(=O)NCCOCCOCC(=O)NCCCCCCCCCCC(=O)O)NC(=O)[C@H](CO)NC(=O)[C@H](C(C)O)NC(=O)[C@H](CC2CCCCC2)NC(=O)[C@H](CCN)NC(=O)[C@@H](CC(C)C)NC(=O)[C@H](C)N(C)C(=O)[C@H](C(C)C)NC(=O)[C@H](Cc2ccc(-c3ccccc3)cc2)NC1=O` (stereo partly drawn) [Example 2433] ({CH2CO}-Y(Carboxymethyl)[Phe(4-COOH)]DWL[Bip]V[NMeA][dL][Dab][Cha][Thr(3ξ)]SC[AEEA][Aun]-OH; thioether N-14), the IC50 is 35.2 nM. With `CC(C)C[C@@H]1NC(=O)[C@H](Cc2c[nH]c3ccccc23)NC(=O)[C@H](CC(=O)O)NC(=O)[C@H](Cc2ccc(C(=O)O)cc2)NC(=O)[C@H](Cc2ccc(OCC(=O)O)cc2)NC(=O)CSC[C@@H](C(=O)NCCOCCOCC(=O)NCCCCCCCCCCC(=O)O)NC(=O)[C@H](Cc2cnc[nH]2)NC(=O)[C@H](C(C)O)NC(=O)[C@H](CC2CCCCC2)NC(=O)[C@H](CCN)NC(=O)[C@@H](CC(C)C)NC(=O)[C@H](C)N(C)C(=O)[C@H](C(C)C)NC(=O)[C@H](Cc2ccc(-c3ccccc3)cc2)NC1=O` (stereo partly drawn) [Example 2435] ({CH2CO}-Y(Carboxymethyl)[Phe(4-COOH)]DWL[Bip]V[NMeA][dL][Dab][Cha][Thr(3ξ)]HC[AEEA][Aun]-OH; thioether N-14), the 50% inhibitory concentration (IC50) amounted to 25.5 nM.
